Data as given in the supplement of paper PMC11208160.

Assay: recombinant barcode read abundance after kanamycin selection (control-corrected) (log10(CPM+1)); higher = more efficient recombination; sequences stand for … in AGTGCAGAGAAAATCGGCCAGTTTTCTCTGCCTGCAGTCCGCATGCCGT…AGATTTATGCAGCGGACTGCCTTTCTCCCAAAGTGATAAACCGGACAGTATCATGGACCGGTTTTCCCGGTAATCCGTATTTGCAAGGTTGGTTTCACT; site = the 11-nt target
In short: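 In E. coli, a pooled library matched targets to IS621 bridge RNA target-binding loops and was introduced alongside a donor plasmid. Cells went onto chloramphenicol/ampicillin/kanamycin with 0.1 mM IPTG or onto chloramphenicol/ampicillin LB agar as control, in duplicate. Recombination efficiency, from recombinant-junction barcodes as counts per million, is averaged and control-corrected. It is reported as log10(CPM+1).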
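Also: IS621 recombinase and bridge RNA in Escherichia coli cells.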

Row | Sequence | recombinant barcode read abundance (log10)
1 | TGAGTCCCTTGGGTTCTAACCTGTTGCTA (site TGGGTCCCTAA) | 0.0131
2 | TGAGTGGCTTGGGTTCTAACCTGTTGCCT (site TGAGAGGCTAG) | 0.129
3 | TGAGTGGCTTGGGTTCTAACCTGTTGCCT (site TGAGCGGCTAG) | 0.108
4 | TGAGTGGCTTGGGTTCTAACCTGTTGCCT (site TGAGGGGCTAG) | 0.00884
5 | TGAGTGGCTTGGGTTCTAACCTGTTGCCT (site TGAGTGGCTAG) | 0.749
6 | TGATAGCCTTGGGTTCTAACCTGTTGCCT (site AGATAGCCTAG) | 0.063
7 | TGATAGCCTTGGGTTCTAACCTGTTGCCT (site CGATAGCCTAG) | 0.0141
8 | TGATAGCCTTGGGTTCTAACCTGTTGCCT (site GGATAGCCTAG) | 0.159
9 | TGATAGCCTTGGGTTCTAACCTGTTGCCT (site TGATAGCCTAG) | 0.901
10 | TGATATTCTTGGGTTCTAACCTGTTGCCT (site ACCAGCCCTCA) | 0.448
11 | TGATATTCTTGGGTTCTAACCTGTTGCCT (site TGATATTCTAG) | 0.245
12 | TGATCTCCTTGGGTTCTAACCTGTTGCAT (site TGATCTCCTAA) | 0.186
13 | TGATCTCCTTGGGTTCTAACCTGTTGCAT (site TGATCTCCTAT) | 0.28
14 | TGATCTCCTTGGGTTCTAACCTGTTGCTT (site TGATCTCCTAA) | 0.0107
15 | TGATCTCCTTGGGTTCTAACCTGTTGCTT (site TGATCTCCTAT) | 0.0466
16 | TGCCAGCCTTGGGTTCTAACCTGTTGCCT (site TGCCAGACTAT) | 0.114
17 | TGCCAGCCTTGGGTTCTAACCTGTTGCCT (site TGCCAGCCTAG) | 0.0668
18 | TGCCTATCTTGGGTTCTAACCTGTTGCCT (site TACCTATCTAG) | 0.234
19 | TGCCTATCTTGGGTTCTAACCTGTTGCCT (site TCCCTATCTAG) | 0.0417
20 | TGCCTATCTTGGGTTCTAACCTGTTGCCT (site TGCCTATCTAG) | 0.28
21 | TGCCTATCTTGGGTTCTAACCTGTTGCCT (site TTCCTATCTAG) | 0.0491
22 | TGCGAGTCTTGGGTTCTAACCTGTTGCGT (site TGCGAGTCTAC) | 2.87
23 | TGCGAGTCTTGGGTTCTAACCTGTTGCGT (site TTCGAGTCTCC) | 0.0688
24 | TGCGCAACTTGGGTTCTAACCTGTTGCCT (site TGCGCAACTAG) | 0.0344
25 | TGCGCAACTTGGGTTCTAACCTGTTGCCT (site TGCGCCACTAG) | 0.256
26 | TGCGCAACTTGGGTTCTAACCTGTTGCCT (site TGCGCGACTAG) | 0.0979

Row | Sequence | recombinant barcode read abundance (log10)
27 | TGCGCAACTTGGGTTCTAACCTGTTGCCT (site TGCGCTACTAG) | 0.0921
28 | TGCGCGACTTGGGTTCTAACCTGTTGCCT (site TGCGCAACTAG) | 0.0131
29 | TGCGCGACTTGGGTTCTAACCTGTTGCCT (site TGCGCCACTAG) | 0.0885
30 | TGCGCGACTTGGGTTCTAACCTGTTGCCT (site TGCGCGACTAG) | 0.032
31 | TGCGCGACTTGGGTTCTAACCTGTTGCCT (site TGCGCTACTAG) | 0.0869
32 | TGCGGAGCTTGGGTTCTAACCTGTTGCCT (site TGCCGACCTAG) | 0.163
33 | TGCGGAGCTTGGGTTCTAACCTGTTGCCT (site TGCGGAGCTAG) | 0.875
34 | TGCGGAGCTTGGGTTCTAACCTGTTGCGG (site AACGGAGCTCC) | 0.348
35 | TGCGGAGCTTGGGTTCTAACCTGTTGCGG (site TGCGGAGCTCC) | 1.81
36 | TGCGTGTCTTGGGTTCTAACCTGTTGCTG (site TACGTGTCTTA) | 0.0382
37 | TGCGTGTCTTGGGTTCTAACCTGTTGCTG (site TGCGTGTCTCA) | 1.6
38 | TGCTGGGCTTGGGTTCTAACCTGTTGCTG (site CTTCATTCTAG) | 0.225
39 | TGCTGGGCTTGGGTTCTAACCTGTTGCTG (site TGCTGGGCTCA) | 0.32
40 | TGCTGTCCTTGGGTTCTAACCTGTTGCCT (site TGCTGTACTAG) | 0.2
41 | TGCTGTCCTTGGGTTCTAACCTGTTGCCT (site TGCTGTCCTAG) | 0.111
42 | TGCTGTCCTTGGGTTCTAACCTGTTGCCT (site TGCTGTGCTAG) | 0.139
43 | TGCTGTCCTTGGGTTCTAACCTGTTGCCT (site TGCTGTTCTAG) | 0.0325
44 | TGCTGTCCTTGGGTTCTAACCTGTTGCTT (site CAGACGACTTG) | 0.127
45 | TGCTGTCCTTGGGTTCTAACCTGTTGCTT (site TGCTGTCCTAA) | 0.00473
46 | TGGAACCCTTGGGTTCTAACCTGTTGCGG (site TGGAACCCTCC) | 0.706
47 | TGGAACCCTTGGGTTCTAACCTGTTGCGG (site TGGCACCCTCC) | 0.0841
48 | TGGAGAGCTTGGGTTCTAACCTGTTGCAG (site ACCTTGCCTTA) | 0.0256
49 | TGGAGAGCTTGGGTTCTAACCTGTTGCAG (site TGGAGAGCTCT) | 2.3
50 | TGGAGCCCTTGGGTTCTAACCTGTTGCAC (site TGGAGCCCTAT) | 0.0355
51 | TGGAGCCCTTGGGTTCTAACCTGTTGCAC (site TGGAGCCCTCT) | 0.114
52 | TGGAGCCCTTGGGTTCTAACCTGTTGCAC (site TGGAGCCCTGT) | 0.253

Row | Sequence | recombinant barcode read abundance (log10)
53 | TGGAGCCCTTGGGTTCTAACCTGTTGCAC (site TGGAGCCCTTT) | 0.0674
54 | TGGAGTCCTTGGGTTCTAACCTGTTGCTT (site TGGAGCCCTAA) | 0.276
55 | TGGAGTCCTTGGGTTCTAACCTGTTGCTT (site TGGAGTCCTAA) | 0.605
56 | TGGATCACTTGGGTTCTAACCTGTTGCCT (site TGGAACACTAG) | 0.0491
57 | TGGATCACTTGGGTTCTAACCTGTTGCCT (site TGGACCACTAG) | 0.0457
58 | TGGATCACTTGGGTTCTAACCTGTTGCCT (site TGGAGCACTAG) | 0.0771
59 | TGGATCACTTGGGTTCTAACCTGTTGCCT (site TGGATCACTAG) | 1.09
60 | TGGCCCTCTTGGGTTCTAACCTGTTGCTC (site TGGCCCTCTAA) | 0.0244
61 | TGGCCCTCTTGGGTTCTAACCTGTTGCTC (site TGGCCCTCTCA) | 0.304
62 | TGGCCCTCTTGGGTTCTAACCTGTTGCTC (site TGGCCCTCTGA) | 1.79
63 | TGGCCCTCTTGGGTTCTAACCTGTTGCTC (site TGGCCCTCTTA) | 0.0751
64 | TGGCGTACTTGGGTTCTAACCTGTTGCCT (site TGGAGTACTAG) | 0
65 | TGGCGTACTTGGGTTCTAACCTGTTGCCT (site TGGCGTACTAG) | 0.229
66 | TGGCGTACTTGGGTTCTAACCTGTTGCCT (site TGGGGTACTAG) | 0.0637
67 | TGGCGTACTTGGGTTCTAACCTGTTGCCT (site TGGTGTACTAG) | 0.149
68 | TGGCTAGCTTGGGTTCTAACCTGTTGCCT (site TGACTAGCTAG) | 0.052
69 | TGGCTAGCTTGGGTTCTAACCTGTTGCCT (site TGCCTAGCTAG) | 0.0442
70 | TGGCTAGCTTGGGTTCTAACCTGTTGCCT (site TGGCTAGCTAG) | 0.242
71 | TGGCTAGCTTGGGTTCTAACCTGTTGCCT (site TGTCTAGCTAG) | 0.0845
72 | TGGGACCCTTGGGTTCTAACCTGTTGCAT (site TGCGACCCTAA) | 0.261
73 | TGGGACCCTTGGGTTCTAACCTGTTGCAT (site TGGGACCCTAT) | 1.25
74 | TGGGCGGCTTGGGTTCTAACCTGTTGCCT (site TAGGTGGCTAG) | 0.133
75 | TGGGCGGCTTGGGTTCTAACCTGTTGCCT (site TGGGCGGCTAG) | 0.411
76 | TGGGGCCCTTGGGTTCTAACCTGTTGCCG (site GCAATTACTAA) | 0.09
77 | TGGGGCCCTTGGGTTCTAACCTGTTGCCG (site TGGGGCCCTCG) | 1.9
